# In patent US20250074910A1, “MENIN INHIBITOR AND USE THEREOF” (HITGEN INC., priority 2021, published 2025):
# pIC50: −log10 of the molar value.
# Test system: OCI-AML3
# Test: Cell proliferation inhibition (CellTiter-Glo), OCI-AML3 (NPM1 mutation)
# Format: cell-based
# Conditions: Homo sapiens, OCI-AML-3, 168 h, OCI-AML3 cells
# Method: (§1) Test Example 2: Test of the Inhibitory Ability of Menin-MLL Interaction Inhibitors on Cell Proliferation
# (§2) The inhibitory ability of the compounds of the present disclosure on the proliferation of tumor cell lines (including cell lines containing MLL fusion protein such as MV4-11, MOLM-13, THP-1 and NOMO-1, control cell lines without MLL fusion protein such as HL-60, K562 and MOLM-16, and cell lines containing NPM1 mutation such as OCI-AML3) was evaluated by using the cell viability analysis method. The cells were plated in 96-well plates at a certain concentration (e.g., 5,000-20,000 cells/well), and then an equal volume of culture medium containing 2 times the final concentration of the test compound (the final concentration ranging 10 from 1 nM to 10 μM) was added. The plates were placed in an incubator and cultured at 37° C. and 5% CO2 for 72-168 h. Before the test, an equal volume of CellTiter-Glo® Luminescent reagent was added, and the plate was incubated at room temperature for 10 min before detection using an ELISA reader (BMG LABTECH). The data were analyzed using GraphPad Prism software to obtain the IC50 value and compound fitting curve. The control compound 1 was prepared by referring to the method of Example 64 in WO2017214367.
row,SMILES,GI50
1,CC(C)N(C(=O)c1cc(F)ccc1Oc1cncnc1N1CC2(CCN(C[C@H]3CC[C@]4(CC3)CC(C)(C)C(=O)N4)CC2)C1)C1CC1 [Example 23],77.9 nM
2,CC(C)N(C(=O)c1cc(F)ccc1Oc1nncnc1N1CC2(CCN(CC3CCC4(CC3)COC(=O)N4)CC2)C1)C(C)C (stereo not shown) [Example 49],108 nM

# Same assay, conditions: OCI-AML3 cells, 168 h
row,SMILES,GI50
1,"CCN(C(=O)c1cc(F)ccc1Oc1nncnc1N1CC2(CCN(C[C@H]3CC[C@]4(CC3)CC(C(C)(C)O)C(=O)N4)CC2)C1)C(C)C (single isomer, unassigned) [Example 58-1b]",30.2 nM

# Test system: not listed separately
# Test: Stability in mouse liver microsomes
# Format: in vitro ADME
# Conditions: 0.5 mg/mL microsomal protein, 1.00 μM compound, NADPH
# Method: (§3) Test Example 3: Test of Stability of Compounds in Liver Microsome
# (§4) Test purpose: To determine the stability of some of the compounds of the present disclosure in mouse, dog and human liver microsomes by LC-MS/MS method.
# (§5) Test materials: The test drugs were in-house prepared example compounds of the present disclosure; the positive reference compound SNDX-5613 was prepared by the method of Example 253 in patent WO2017214367; the control compound 1 was prepared by the method of Example 64 in WO2017214367; liver microsomes were purchased from CORNING.
# (§6) The total volume of each incubation system was approximately 45 μL, and the medium was 100 mM phosphate buffer (PBS, pH 7.4), including liver microsomal protein at a final concentration of 0.5 mg/mL, 1.00 μM compound and 2.00 mM NADPH, and the organic phase content was <1%. Incubation was performed in a 37° C. incubator, and 135 μL of ice-cold acetonitrile was added after 0, 5, 15, 30 and 60 min of reaction to terminate the reaction. The positive control group was incubated with 1.00 μM Ketanserin, 0.5 mg/mL liver microsomal protein and 2.00 mM NADPH in a 37° C. incubator for 0, 5, 15, 30 and 60 min respectively, and then 135 μL of ice-cold acetonitrile was added to terminate the reaction. The 96-well plates were shaken at 600 rpm for 10 min and then centrifuged at 4700 rpm at 4° C. for 15 min. 80 μL of supernatant was mixed with 320 μL of pure water, and the remaining amount of the compound was detected by LC-MS/MS method. The in vitro half life (T½) and intrinsic clearance (CLint) were calculated according to the following formula:
# (§7) Intrinsic clearance (Clint)=(0.693/T1/2)×(1/liver microsome concentration)×conversion factor. k is the linear regression slope of the remaining percentage of the ln compound-incubation time.
row,SMILES,"Half life T1/2, mouse liver microsomes"
1,"CCN(C(=O)c1cc(F)ccc1Oc1nncnc1N1CC2(CCN(C[C@H]3CC[C@]4(CC3)CC(C(C)(C)O)C(=O)N4)CC2)C1)C(C)C (single isomer, unassigned) [Example 58-1b]",>2 h

# Same assay, conditions: liver microsomes, pH 7.4, 0.5 mg/mL microsomal protein, 1.00 μM compound, NADPH, read-out: Half life T1/2, mouse liver microsomes
row,SMILES,half-life at 1 μM
1,CC(C)N(C(=O)c1cc(F)ccc1Oc1cncnc1N1CC2(CCN(C[C@H]3CC[C@]4(CC3)CC(C)(C)C(=O)N4)CC2)C1)C1CC1 [Example 23],0.808 h

# Test system: not listed separately
# Test: Pharmacokinetics test in mouse
# Format: in vivo, ICR mice
# Conditions: male, ICR, mouse, plasma, po, 10 mg/kg, mice, p.o. 10 mg/kg
# Excerpt: Test Example 4. In Vivo Pharmacokinetic Study
# Test purpose: To determine the pharmacokinetic properties of some of the example compounds of the present disclosure in mice, rats and dogs after single intravenous injection (i.v.) and oral gavage (i.g.) administration by LC-MS/MS method.
# Research methods: An appropriate amount of compound was weighed and prepared into a transparent clear solution of a certain concentration using 0.9% sodium chloride injection and 1.5 equivalents of 1M HCl aqueous solution based on the molar number of the compound. After SPF male ICR mice, SPF male SD rats, and male beagle dogs were fasted overnight, the test compound solution was given by intravenous injection and oral gavage at the corresponding dose. Anticoagulated whole blood of the test animals was collected at 5 min, 15 min, 30 min, 1 h, 2 h, 4 h, 8 h, and 24 h after administration, and plasma was separated. Plasma samples at each time point were detected by LC-MS/MS, and the plasma concentration of the compound was determined by the standard curve correction method. Phoenix WinNonlin 5.2 non-compartmental model was used to calculate the pharmacokinetic parameters of terminal elimination half-life (t½), blood peak concentration (Cmax), area under the concentration-time curve (AUC), clearance (CL), and bioavailability (F %), which was directly obtained from the serum concentration results. Blood drug concentration and pharmacokinetic parameters are expressed as mean±standard deviation (X±SD). The specific test protocols for each species are as follows.
# Pharmacokinetics Test in Mouse
# Test animals: SPF male ICR mice, weighing 25-30 g, 12 mice/compound, purchased from Chengdu Dossy Experimental Animal Co., Ltd.
# Test design: On the day of the test, ICR mice were randomly divided into groups according to body weight, fasted but with free water for 12-14 h one day before administration, and fed 2 h after administration.
# Preparation of test compound solution: The concentration of the test compound for oral gavage was 1 mg/mL. An appropriate amount of compound was weighed and prepared into a 1 mg/mL transparent clear solution using 0.9% sodium chloride injection and 1.5 equivalents of 1M HCl aqueous solution. The concentration of the test compound for intravenous injection was 0.2 mg/mL. The 1 mg/mL transparent clear solution was diluted to a concentration of 0.2 mg/mL using 0.9% sodium chloride injection. The volume of 1 M HCl solution added was calculated as: volume of 1 M HCl solution added […]=weighed amount of compound (mg)/molecular weight×1.5×1000. The amount added during preparation must not exceed the calculated value.
# The test substance was administered as follows: intravenous injection: 1 mg/kg of dose, 5 mL/kg of volume, 6 mice; oral gavage: 10 mg/kg of dose, 10 mL/kg of volume, 6 mice.
# Sample collection: Blood (40-50 μl) was collected in anticoagulant tubes sprayed with EDTA-K2 through the orbital venous plexus at 5 min, 15 min, 30 min, 1 h, 2 h, 4 h, 8 h, and 24 h after administration, and centrifuged at 10,000 rpm for 20 min within 1 h (the blood was saved on wet ice before and after centrifugation). The supernatant, which was plasma, was collected and frozen in a refrigerator at −20° C. or below for LC-MS/MS analysis of Full PK of male ICR mice (2 mice per group, 4 blood collection time points per mouse, crossover).
SMILES,AUC(0-t),half-life
CC(C)N(C(=O)c1cc(F)ccc1Oc1cncnc1N1CC2(CCN(C[C@H]3CC[C@]4(CC3)CC(C)(C)C(=O)N4)CC2)C1)C1CC1 [Example 23],2650 ng·h/mL,2.52 h
CC(C)N(C(=O)c1cc(F)ccc1Oc1nncnc1N1CC2(CCN(CC3CCC4(CC3)COC(=O)N4)CC2)C1)C(C)C (stereo not shown) [Example 49],2320 ng·h/mL,1.1 h

# Same assay, conditions: male, ICR, mouse, plasma, po, 10 mg/kg, mice, p.o. 10 mg/kg; read-out: Cmax
row,SMILES,Cmax
1,CC(C)N(C(=O)c1cc(F)ccc1Oc1cncnc1N1CC2(CCN(C[C@H]3CC[C@]4(CC3)CC(C)(C)C(=O)N4)CC2)C1)C1CC1 [Example 23],1510 ng/mL
2,CC(C)N(C(=O)c1cc(F)ccc1Oc1nncnc1N1CC2(CCN(CC3CCC4(CC3)COC(=O)N4)CC2)C1)C(C)C (stereo not shown) [Example 49],1350 ng/mL

# Same assay, conditions: mice, p.o. 10 mg/kg; 1 mg/kg for intravenous injection
row,SMILES,"F, %"
1,CC(C)N(C(=O)c1cc(F)ccc1Oc1cncnc1N1CC2(CCN(C[C@H]3CC[C@]4(CC3)CC(C)(C)C(=O)N4)CC2)C1)C1CC1 [Example 23],119%
2,CC(C)N(C(=O)c1cc(F)ccc1Oc1nncnc1N1CC2(CCN(CC3CCC4(CC3)COC(=O)N4)CC2)C1)C(C)C (stereo not shown) [Example 49],77%

# Test system: MOLM-13
# Test: Cell proliferation inhibition (CellTiter-Glo), MOLM-13
# Format: cell-based
# Conditions: Homo sapiens, MOLM-13, 168 h, MOLM-13 cells
# Method: as §1, §2
row,SMILES,GI50
1,CC(C)N(C(=O)c1cc(F)ccc1Oc1cncnc1N1CC2(CCN(C[C@H]3CC[C@]4(CC3)CC(C)(C)C(=O)N4)CC2)C1)C1CC1 [Example 23],157 nM
2,CC(C)N(C(=O)c1cc(F)ccc1Oc1nncnc1N1CC2(CCN(CC3CCC4(CC3)COC(=O)N4)CC2)C1)C(C)C (stereo not shown) [Example 49],110 nM

# Same assay, conditions: MOLM-13 cells, 168 h
row,SMILES,GI50
1,"CCN(C(=O)c1cc(F)ccc1Oc1nncnc1N1CC2(CCN(C[C@H]3CC[C@]4(CC3)CC(C(C)(C)O)C(=O)N4)CC2)C1)C(C)C (single isomer, unassigned) [Example 58-1b]",56.9 nM

# Test system: not listed separately
# Test: Stability in dog liver microsomes
# Format: in vitro ADME
# Conditions: Dog; 0.5 mg/mL microsomal protein, 1.00 μM compound, NADPH
# Method: as §3, §4, §5, §6, §7
row,SMILES,"Half life T1/2, dog liver microsomes"
1,"CCN(C(=O)c1cc(F)ccc1Oc1nncnc1N1CC2(CCN(C[C@H]3CC[C@]4(CC3)CC(C(C)(C)O)C(=O)N4)CC2)C1)C(C)C (single isomer, unassigned) [Example 58-1b]",1.14 h

# Test system: not listed separately
# Test: Stability in human liver microsomes
# Format: in vitro ADME
# Conditions: Human; 0.5 mg/mL microsomal protein, 1.00 μM compound, NADPH
# Method: as §3, §4, §5, §6, §7
row,SMILES,"Half life T1/2, human liver microsomes"
1,"CCN(C(=O)c1cc(F)ccc1Oc1nncnc1N1CC2(CCN(C[C@H]3CC[C@]4(CC3)CC(C(C)(C)O)C(=O)N4)CC2)C1)C(C)C (single isomer, unassigned) [Example 58-1b]",0.593 h

# Same assay, conditions: human, liver microsomes, pH 7.4, Human; 0.5 mg/mL microsomal protein, 1.00 μM compound, NADPH; read-out: Half life T1/2, human liver microsomes
row,SMILES,half-life at 1 μM
1,CC(C)N(C(=O)c1cc(F)ccc1Oc1cncnc1N1CC2(CCN(C[C@H]3CC[C@]4(CC3)CC(C)(C)C(=O)N4)CC2)C1)C1CC1 [Example 23],0.605 h

# Biological target: Menin/MLL-4-43 peptide interaction (Homo sapiens (Human), UniProt O00255)
# Test: Menin-MLL interaction inhibitory activity assay (fluorescence polarization competition)
# Format: binding
# Conditions: FITC-MLL4-43-peptide, Menin recombinant protein
# Method: Test Example 1: Menin-MLL Interaction Inhibitory Activity Assay
# The inhibition of Menin/MLL-4-43 peptide interaction by small molecule inhibitors was quantitatively detected by fluorescence polarization competition assay. The experiment was performed in a 384-well plate (Corning, Cat #3575) using a reaction buffer consisting of 50 mM Tris, pH 7.5, 50 mM NaCl, and 1 mM DTT. A 40 μL reaction system included 10 μL of 8 nM Menin recombinant protein and 10 μL of the test compound at different concentrations. The compound was pre-incubated with Menin protein for 15 min, and then 20 μL of 10 nM FITC-MLL4-43-peptide was added. After incubation on a shaker at 25° C. for 60 min, the fluorescence polarization signal (FP 485 520 520) was read using BMG PHERAStar detection. The experimental data was analyzed and processed by GraphPad Prism 6 software to obtain the IC50 value. The control compound 1 was prepared by referring to the method of Example 64 in WO2017214367.
# Chain of Menin/MLL-4-43 peptide interaction (O00255 whole entry, species assumed): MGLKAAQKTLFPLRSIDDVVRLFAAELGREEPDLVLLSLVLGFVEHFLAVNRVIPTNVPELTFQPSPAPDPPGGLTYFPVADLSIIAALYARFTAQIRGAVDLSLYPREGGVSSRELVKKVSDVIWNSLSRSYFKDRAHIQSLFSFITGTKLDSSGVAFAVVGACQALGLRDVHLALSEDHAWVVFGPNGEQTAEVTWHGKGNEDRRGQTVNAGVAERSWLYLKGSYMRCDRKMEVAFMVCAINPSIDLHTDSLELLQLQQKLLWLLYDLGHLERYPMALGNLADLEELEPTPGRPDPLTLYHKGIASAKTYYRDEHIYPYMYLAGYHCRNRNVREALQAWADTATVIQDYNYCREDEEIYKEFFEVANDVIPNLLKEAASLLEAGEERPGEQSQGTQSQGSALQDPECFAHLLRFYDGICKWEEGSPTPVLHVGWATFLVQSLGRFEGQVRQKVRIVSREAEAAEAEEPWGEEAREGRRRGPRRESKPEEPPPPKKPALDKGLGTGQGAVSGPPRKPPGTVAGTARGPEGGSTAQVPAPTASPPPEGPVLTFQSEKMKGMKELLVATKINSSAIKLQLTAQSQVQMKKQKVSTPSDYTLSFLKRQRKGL
row,SMILES,pIC50
1,"CCN(C(=O)c1cc(F)ccc1Oc1nncnc1N1CC2(CCN(C[C@H]3CC[C@]4(CC3)CC(C(C)(C)O)C(=O)N4)CC2)C1)C(C)C (single isomer, unassigned) [Example 58-1b]",8.23
2,CC(C)N(C(=O)c1cc(F)ccc1Oc1cncnc1N1CC2(CCN(C[C@H]3CC[C@]4(CC3)CC(C)(C)C(=O)N4)CC2)C1)C1CC1 [Example 23],7.92
3,CC(C)N(C(=O)c1cc(F)ccc1Oc1nncnc1N1CC2(CCN(CC3CCC4(CC3)COC(=O)N4)CC2)C1)C(C)C (stereo not shown) [Example 49],7.38

# Test system: MV4-11
# Test: Cell proliferation inhibition (CellTiter-Glo), MV4-11
# Format: cell-based
# Conditions: Homo sapiens, MV4-11, 72 h, MV4-11 cells
# Method: as §1, §2
row,SMILES,GI50
1,CC(C)N(C(=O)c1cc(F)ccc1Oc1cncnc1N1CC2(CCN(C[C@H]3CC[C@]4(CC3)CC(C)(C)C(=O)N4)CC2)C1)C1CC1 [Example 23],20 nM
2,CC(C)N(C(=O)c1cc(F)ccc1Oc1nncnc1N1CC2(CCN(CC3CCC4(CC3)COC(=O)N4)CC2)C1)C(C)C (stereo not shown) [Example 49],51.3 nM

# Same assay, conditions: MV4-11 cells, 72 h
row,SMILES,GI50
1,"CCN(C(=O)c1cc(F)ccc1Oc1nncnc1N1CC2(CCN(C[C@H]3CC[C@]4(CC3)CC(C(C)(C)O)C(=O)N4)CC2)C1)C(C)C (single isomer, unassigned) [Example 58-1b]",18 nM
